Experimental findings from PubChem BioAssay (NCI) are described below.

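The compound was tested at five concentrations on cells cultured in 96-well plates, with a 48-hour exposure period. GI50: concentration for 50% inhibition of growth. TGI denotes the concentration required for complete inhibition of growth.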

Some test systems named below: SW-620 colon; CCRF-CEM leukemia; UACC-257 melanoma; RPMI-8226 leukemia; K-562 leukemia; NCI-H226 lung; OVCAR-3 ovarian; HCT-15 colon.
Test in all cases: NCI-60 cell line screen, 48 h

Consider `COc1ccccc1-c1cc2c3c(nc4ccccc42)C(=O)c2cccnc2-c3n1`, for which the GI50 in the assay with SW-620 colon was 9.58 µM; with CCRF-CEM leukemia, 4.94 µM; in the assay with UACC-257 melanoma, 7.22 µM; in the assay on RPMI-8226 leukemia, 34.6 µM; with K-562 leukemia it was more than 19.6 µM; in the assay on NCI-H226 lung, 15.3 µM. Also, the GI50 in the assay with OVCAR-3 ovarian was 1.56 µM; with HCT-15 colon, 3.55 µM. Moreover, the TGI in the assay on SW-620 colon was 27.3 µM; in the assay with CCRF-CEM leukemia it was more than 100 µM; with UACC-257 melanoma it was 22.8 µM; in the assay with RPMI-8226 leukemia it was more than 100 µM; with K-562 leukemia, more than 100 µM; in the assay on NCI-H226 lung it was 33 µM. Besides, the TGI was more than 37.5 µM with OVCAR-3 ovarian and 8.62 µM in the assay with HCT-15 colon.
Take `CCN(CC)c1ccc(NC(C(=O)c2ccccc2)c2ccccc2)cc1` (stereo not given): the GI50 in the assay on SW-620 colon was 2.25 µM; in the assay on CCRF-CEM leukemia, 2.29 µM; in the assay with UACC-257 melanoma it was 4.86 µM; in the assay on RPMI-8226 leukemia it was 2.61 µM; in the assay with K-562 leukemia, 3.27 µM; in the assay on NCI-H226 lung, 1.76 µM. Also, the GI50 was 3.05 µM in the assay on OVCAR-3 ovarian and 1.96 µM in the assay with HCT-15 colon. Further, the TGI in the assay on SW-620 colon was determined as 5.93 µM; with CCRF-CEM leukemia it was 13.5 µM; with UACC-257 melanoma it was 22.1 µM; in the assay with RPMI-8226 leukemia it was 12.3 µM; with K-562 leukemia it was 55.1 µM; with NCI-H226 lung it was 3.53 µM. In addition, the figures for the TGI in the assay on OVCAR-3 ovarian and in the assay on HCT-15 colon were 8.15 µM and 5.31 µM, respectively.
On to `C[C@@H]1O[C@@H](O[C@H]2C[C@@H](O)[C@]3(CO)C4C(CC[C@]3(O)C2)[C@@]2(O)CC[C@H](C3=CC(=O)OC3)[C@@]2(C)C[C@H]4O)[C@H](O)[C@H](O)[C@H]1O` (stereo not given in full), for which the GI50 was 0.022 µM in the assay on SW-620 colon; 0.0168 µM with CCRF-CEM leukemia; 0.0626 µM with UACC-257 melanoma; 0.0672 µM with RPMI-8226 leukemia; 0.0323 µM in the assay on K-562 leukemia; 0.0741 µM in the assay with NCI-H226 lung. For the same compound, the GI50 is 0.0168 µM in the assay on OVCAR-3 ovarian and 0.0372 µM in the assay on HCT-15 colon. In addition, the TGI came out at 0.0869 µM in the assay with SW-620 colon; 0.0808 µM with CCRF-CEM leukemia; 0.129 µM in the assay with UACC-257 melanoma; 1.76 µM in the assay with RPMI-8226 leukemia; 0.162 µM in the assay with K-562 leukemia; 0.154 µM with NCI-H226 lung. Further, the figures for the TGI with OVCAR-3 ovarian and with HCT-15 colon were 0.0487 µM and 0.114 µM, respectively.
In the case of `COc1ccc2c(c1)C(=O)c1c-2c(NCCCN(C)C)nc2ccccc12`, the GI50 with SW-620 colon was 1.45 µM; in the assay with CCRF-CEM leukemia, 1.48 µM; with UACC-257 melanoma, 11.8 µM; with RPMI-8226 leukemia it was 1.93 µM; in the assay on K-562 leukemia, 3.69 µM; in the assay on NCI-H226 lung it was 11.6 µM. Further, the GI50 was 15.3 µM in the assay with OVCAR-3 ovarian and 1.42 µM in the assay with HCT-15 colon. Moreover, the TGI is 2.99 µM in the assay with SW-620 colon; 3.47 µM in the assay with CCRF-CEM leukemia; 25.4 µM with UACC-257 melanoma; 4.39 µM in the assay with RPMI-8226 leukemia; 14.7 µM in the assay on K-562 leukemia; 24 µM in the assay on NCI-H226 lung. In addition, the TGI with OVCAR-3 ovarian worked out at 31.7 µM; in the assay on HCT-15 colon, 3.2 µM.
For `Cc1oc2ccccc2c(=O)c1Cn1nnc2ccccc21`, the TGI with SW-620 colon is more than 100 µM; in the assay with CCRF-CEM leukemia, more than 100 µM; in the assay on UACC-257 melanoma, 66.9 µM; with RPMI-8226 leukemia, more than 100 µM; in the assay on K-562 leukemia, more than 100 µM; in the assay on NCI-H226 lung, more than 100 µM. For the same compound, the TGI is 79.7 µM in the assay with OVCAR-3 ovarian and more than 100 µM with HCT-15 colon.
With `O=C1Nc2ccc(F)c3c(OCCO)cc(-c4ccc[nH]4)c1c23`, the GI50 was 0.837 µM in the assay with SW-620 colon; 0.99 µM with CCRF-CEM leukemia; 4.94 µM in the assay with UACC-257 melanoma; 1.82 µM in the assay with RPMI-8226 leukemia; 5.28 µM in the assay on K-562 leukemia; 1.47 µM in the assay with NCI-H226 lung. Further, the GI50 in the assay with OVCAR-3 ovarian was 3.59 µM; with HCT-15 colon, 0.957 µM. For the same compound, the TGI in the assay with SW-620 colon turned out to be 8.23 µM; in the assay with CCRF-CEM leukemia it was 11.1 µM; in the assay on UACC-257 melanoma it was 17.9 µM; in the assay with RPMI-8226 leukemia it was 8.18 µM; with K-562 leukemia, 25 µM; with NCI-H226 lung it was 12.8 µM. The figures for the TGI in the assay with OVCAR-3 ovarian and in the assay on HCT-15 colon were 9.7 µM and 7.87 µM, respectively.
In the case of `COc1ccc(-c2cc3c4c(nc5ccccc5c4c2)CC(c2cc(OC)c(OC)c(OC)c2)O3)cc1` (stereo not given), the GI50 is 2.63 µM in the assay with SW-620 colon; more than 100 µM in the assay on CCRF-CEM leukemia; 3.93 µM with UACC-257 melanoma; 3.66 µM in the assay on RPMI-8226 leukemia; 3.37 µM in the assay on K-562 leukemia; 1.71 µM in the assay with NCI-H226 lung. For the same compound, the GI50 in the assay with OVCAR-3 ovarian was 1.86 µM; with HCT-15 colon, 3.73 µM. Also, the TGI in the assay with SW-620 colon was more than 100 µM; in the assay with CCRF-CEM leukemia, more than 100 µM; in the assay on UACC-257 melanoma it was more than 100 µM; with RPMI-8226 leukemia, more than 100 µM; with K-562 leukemia, more than 100 µM; with NCI-H226 lung it was 3.89 µM. Further, the TGI in the assay with OVCAR-3 ovarian is 4.28 µM; in the assay on HCT-15 colon it was more than 100 µM.
`Cc1nc2sc(C(=O)Nc3cccc4ccccc34)c(N)c2cc1C(C)O` (stereo not given): the GI50 was 0.175 µM with SW-620 colon; 0.21 µM with CCRF-CEM leukemia; more than 50 µM in the assay on UACC-257 melanoma; 0.223 µM in the assay on RPMI-8226 leukemia; 0.157 µM with K-562 leukemia; 0.28 µM in the assay on NCI-H226 lung. The GI50 is 0.155 µM with OVCAR-3 ovarian and 0.189 µM in the assay with HCT-15 colon. The TGI in the assay on SW-620 colon, with CCRF-CEM leukemia, in the assay on UACC-257 melanoma, in the assay on RPMI-8226 leukemia, with K-562 leukemia and with NCI-H226 lung was more than 50 µM each time. In the assay with HCT-15 colon, this compound registered a TGI of more than 50 µM.
Turning to `COc1ccc2c(c1)O/C(=C\c1cccc(OCC(=O)Nc3nc4ccccc4s3)c1)C2=O`, the GI50 with SW-620 colon is 38.4 µM; in the assay with CCRF-CEM leukemia, 0.419 µM; in the assay with UACC-257 melanoma, more than 100 µM; with RPMI-8226 leukemia, 4.87 µM; with K-562 leukemia, 6.07 µM; in the assay with NCI-H226 lung, 42 µM. The GI50 was 3.16 µM in the assay on OVCAR-3 ovarian and 13.9 µM in the assay with HCT-15 colon. The TGI with SW-620 colon is more than 100 µM; in the assay with CCRF-CEM leukemia, 1.25 µM; in the assay with UACC-257 melanoma, more than 100 µM; with RPMI-8226 leukemia, more than 100 µM; with K-562 leukemia, more than 100 µM; in the assay with NCI-H226 lung, more than 100 µM. Also, the TGI with OVCAR-3 ovarian was 9.56 µM; with HCT-15 colon, more than 100 µM.
